Patent publication US20250154141A1 (University of Florida Research Foundation, Incorporated, priority 2021, published 2025)
Where two headings read alike, the source gives them in different places.

What was measured:
Bcl-2 [1] = molecular target: T1, Bcl-2 (Homo sapiens, UniProt P10415); test: Protein degradation assay in Jurkat cells (Western blot), Bcl-2; format: cell-based; set-up: endogenous in cells; host or cells: Jurkat cells; settings: for degradation of BCL-2 by Western blotting analysis: FIG. 1, 16 hours; for degradation of Bcl-2 (immunoblot): FIGS. 2-3, increasing concentrations 16 hours, 100 nM for various durations; for duration of Bcl-2 degradation after wash-off: FIGS. 2C, 3C, 16 h treatment, cultured without compound 0 to 48
Procedure: (§1) Jurkat cells and human platelets were incubated with increasing concentrations of test compounds for 16 h. The cells were harvested and lysed in RIPA lysis buffer supplemented with protease and phosphatase inhibitor cocktails. An equal amount of protein ([…]) was resolved on a pre-cast 4-20% SDS-PAGE gel. Proteins were subsequently transferred to NOVEX PVDF membranes by electrophoresis. The membranes were blocked in blocking buffer (5% non-fat dry milk in TBS-T), and incubated with primary antibodies (at optimized concentrations) overnight at 4° C. After three washings in TBS-T, the membranes were incubated with an appropriate FIRP-conjugated secondary antibody for 1 h at room temperature. After extensive washing for three times, the proteins of interest was detected with ECL western blotting detection reagents and recorded with autoradiography (Pierce Biotech, Rockford, IL, USA). The primary antibodies for Bcl-xL (Cat #2762), Bcl-2 (Cat #2872), Mcl-1 (Cat #5453) and j-actin (Cat #4970) were purchased from Cell Signaling Technology. The relative band intensity was measured using ImageJ software and normalized to β-actin.

RS4; 11 = test: Cell viability assay (MTS) in RS4; 11 cells; format: cell-based; settings: Homo sapiens
Procedure: (§2) Acute lymphoblastic leukemia cells (MOLT-4 and RS4; 11) were incubated with increasing concentrations of Bcl-xL degraders for 48 h. Cell viability was measured by tetrazolium-based MTS assay.

Bcl-xL [2] = molecular target: T2, Bcl-xL (Homo sapiens, UniProt Q07817); test: Protein degradation assay in Jurkat cells (Western blot), Bcl-xL; format: cell-based; set-up: endogenous in cells; host or cells: Jurkat cells; settings: for degradation of BCL-XL by Western blotting analysis: FIG. 1, 16 hours; for degradation of Bcl-xL (immunoblot): FIGS. 2-3, increasing concentrations 16 hours, 100 nM for various durations; for duration of Bcl-xL degradation after wash-off: FIGS. 2C, 3C, 16 h treatment, cultured without compound 0 to 48
Procedure: as §1

MOLT-4 = test: Cell viability assay (MTS) in MOLT-4 cells; format: cell-based; settings: Homo sapiens
Procedure: as §2

human platelets = test: Platelet toxicity assay (MTS viability); format: cell-based; settings: for IC50: Platelet, 48 h, human platelets; for Platelets/MOLT-4 IC50 Fold change: ratio of platelet IC50 to MOLT-4 IC50
Procedure: Platelet-rich plasma (PRP) was purchased from Life South Community Blood Centers (Gainesville, FL, USA). PRP was transferred into a 50 mL tube containing 5 mL of the acid citrate buffer (Cat. No. sc-214744, Santa Cruz Biotechnology). To prevent clotting, prostaglandin E1 (PGE1, Cat. No. sc-201223A, Santa Cruz Biotechnology, Dallas, TX, USA) and apyrase (Cat. No. A6237, Sigma-Aldrich, St. Louis, MO, USA) were added to final concentrations of […] and 0.2 U/mL, respectively. After gently mixing the solution, platelets were pelleted by centrifugation at 1200 g for 10 min without break. Pelleted platelets were gently washed without disturbing platelets using 2 mL of HEPES Tyrode's buffer (Cat. No. PY-921WB, Boston BioProducts, Ashland, MA, USA) containing […] PGE1 and 0.2 U/mL apyrase. After washing, pellets were gently suspended in 10 mL of HEPES Tyrode's buffer containing […] PGE1 and 0.2 U/mL apyrase. Then, the platelet number was counted using a HEMAVET 950FS hematology analyzer (Drew Scientific, Inc., Oxford, CT, USA). For viability assays, the platelet number was adjusted to 2×10^8/mL in HEPES Tyrode's buffer containing […] PGE1 and 0.2 U/mL apyrase. Each treatment was given in 2 mL of the platelet suspension in 15 mL polypropylene tubes. The tubes were placed on a rotating platform at room temperature, and the viability of platelets was measured after 48 h treatment by using the MTS reagent (Cat. No. G1111, Promega, Madison, WI, USA). The data were analyzed by the GraphPad Prism 7 software for the calculation of IC50 values.

Bcl-2 [3] = molecular target: T1, Bcl-2; test: Protein degradation assay in human platelets (Western blot), Bcl-2; format: cell-based; set-up: endogenous in cells; host or cells: human platelets; settings: FIG. 4, 16 h
Procedure: as §1

Bcl-xL [4] = molecular target: T2, Bcl-xL; test: Protein degradation assay in human platelets (Western blot), Bcl-xL; format: cell-based; set-up: endogenous in cells; host or cells: human platelets; settings: FIG. 4, 16 h
Procedure: as §1

[5] = molecular target: VCB E3 ligase complex and Bcl-xL (Homo sapiens, UniProt P40337+Q07817); test: Ternary complex assay (AlphaLISA); format: binding; settings: FIG. 5A
Procedure: To detect ternary complex formation induced by the compounds, AIphaLISA assay was used to measure luminescence signals arisen from proximity of Bcl-xL bounded acceptor beads and VHL- or CRBN—bounded donor beads. Briefly, to a 96-well PCR plate, 10 μL of 20 nM 6-His tagged Bcl-xL protein can be mixed with 10 μL of 20 nM GST-tagged VHL complex protein and 10 μL of serially diluted testing compounds. After incubating at room temperature for 30 […], 5 μL of 160 μg/mL Glutathione donor beads (PerkinEImer) was added and the mixture was incubated at dark for 15 min. 5 μL of 160 μg/mL of anti-His acceptor beads was added lastly and the mixture was incubated for an additional 45 min before being transferred to two adjacent wells (17 μL each) of 384-well white OptiPIate (PerkinEImer). The luminescence signals were detected on a Biotek's Synergy Neo2 multi-mode plate reader installed with an AphaScreen filter cube. All reagents were diluted in an assay buffer of 25 mM HEPES, pH 7.5, 100 mM NaCl, 0.1% BSA, and 0.005% tween 20 prior incubation.

[6] = RS4-11, Table 2, 48 hr, MTS, read-out: Anti-Cancer Activity IC50 (48 hr) RS4, 11
[7] = MOLT-4, Table 2, 48 hr, MTS, read-out: Anti-Cancer Activity IC50 (48 hr) MOLT-4
[8] = RS4-11, 48 h, read-out: Anti-Cancer Activity IC50 (48 hr) RS4, 11
[9] = MOLT-4, 48 h, read-out: Anti-Cancer Activity IC50 (48 hr) MOLT-4
[10] = Homo sapiens, Table 6, 4 th time, read-out: Platelets 4 th time 48 h IC50
[11] = RS4-11, Table 6, 48 h, read-out: RS4 48 h IC50
[12] = MOLT-4, Table 6, 48 h, read-out: MOLT-4 48 h IC50

T2 sequence (Q07817 whole entry): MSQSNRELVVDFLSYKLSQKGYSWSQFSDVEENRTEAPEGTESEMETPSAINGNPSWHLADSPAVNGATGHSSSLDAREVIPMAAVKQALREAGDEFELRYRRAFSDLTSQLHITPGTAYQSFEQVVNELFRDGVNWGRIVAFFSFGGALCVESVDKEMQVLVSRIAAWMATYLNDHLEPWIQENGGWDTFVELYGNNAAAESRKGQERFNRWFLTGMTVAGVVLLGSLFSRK
T1 sequence (P10415 whole entry): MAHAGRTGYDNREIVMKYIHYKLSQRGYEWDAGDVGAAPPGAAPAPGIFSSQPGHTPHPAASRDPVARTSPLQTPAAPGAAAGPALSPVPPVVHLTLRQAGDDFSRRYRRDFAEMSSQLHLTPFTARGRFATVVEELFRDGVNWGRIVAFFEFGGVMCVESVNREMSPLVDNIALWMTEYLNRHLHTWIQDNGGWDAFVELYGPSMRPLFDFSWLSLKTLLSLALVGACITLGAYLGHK
VCB E3 ligase complex and Bcl-xL, sequence (Q07817 whole entry): as the sequence (Q07817 whole entry) above
VCB E3 ligase complex and Bcl-xL, sequence (P40337 whole entry): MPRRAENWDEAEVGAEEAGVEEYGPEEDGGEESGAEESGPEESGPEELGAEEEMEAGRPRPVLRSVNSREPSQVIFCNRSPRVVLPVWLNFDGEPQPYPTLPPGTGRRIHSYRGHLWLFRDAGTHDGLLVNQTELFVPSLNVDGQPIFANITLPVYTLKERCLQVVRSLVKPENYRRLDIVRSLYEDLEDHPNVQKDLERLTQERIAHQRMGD
VCB E3 ligase complex and Bcl-xL, sequence (Q15370 whole entry partner): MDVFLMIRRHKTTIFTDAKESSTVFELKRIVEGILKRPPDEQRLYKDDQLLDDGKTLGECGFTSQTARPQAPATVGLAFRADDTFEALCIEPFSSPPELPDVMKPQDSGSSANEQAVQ
VCB E3 ligase complex and Bcl-xL, sequence (Q15369 whole entry partner): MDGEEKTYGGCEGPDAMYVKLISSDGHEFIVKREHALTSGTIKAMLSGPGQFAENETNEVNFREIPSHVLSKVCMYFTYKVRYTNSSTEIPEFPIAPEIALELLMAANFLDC

| SMILES | degradation of BCL-2 by Western blotting analysis (Bcl-2 [1]) | IC50 (RS4; 11; [6]) [nM] | degradation of BCL-XL by Western blotting analysis (Bcl-xL [2]) | IC50 (MOLT-4; [7]) [nM] | IC50 (RS4; 11; [8]) [nM] | IC50 (MOLT-4; [9]) [nM] | IC50 (human platelets; [10]) [nM] | Platelets/MOLT-4 IC50 Fold change (human platelets; Table 6) | IC50 (RS4; 11; [11]) [nM] | IC50 (MOLT-4; [12]) [nM] | degradation of Bcl-2 (immunoblot) (Bcl-2 [1]) | duration of Bcl-2 degradation after wash-off (Bcl-2 [1]) | Bcl-2 expression levels in human platelets (Bcl-2 [3]) | degradation of Bcl-xL (immunoblot) (Bcl-xL [2]) | duration of Bcl-xL degradation after wash-off (Bcl-xL [2]) | Bcl-xL expression levels in human platelets (Bcl-xL [4]) | other results |
| --- | --- | --- | --- | --- | --- | --- | --- | --- | --- | --- | --- | --- | --- | --- | --- | --- | --- |
| Cc1ncsc1-c1ccc([C@H](C)NC(=O)[C@@H]2C[C@@H](O)CN2C(=O)[C@@H](NC(=O)CN2CCC(CC(=O)N3CCN(CC4(C)CCC(c5ccc(Cl)cc5)=C(CN5CCN(c6ccc(C(=O)NS(=O)(=O)c7ccc(N[C@H](CCN8CCOCC8)CSc8ccccc8)c(S(=O)(=O)C(F)(F)F)c7)cc6)CC5)C4)CC3)CC2)C(C)(C)C)cc1 (stereo partly shown) [Compound 26] | exemplary degradation | 20 to 100 | exemplary degradation | < 20 | – | – | – | – | – | – | – | – | – | – | – | – | – |
| Cc1ncsc1-c1ccc([C@H](C)NC(=O)[C@@H]2C[C@@H](O)CN2C(=O)[C@@H](NC(=O)CN2[C@@H]3CC[C@H]2CN(CC(=O)N2CCN(CC4(C)CCC(c5ccc(Cl)cc5)=C(CN5CCN(c6ccc(C(=O)NS(=O)(=O)c7ccc(N[C@H](CCN8CCOCC8)CSc8ccccc8)c(S(=O)(=O)C(F)(F)F)c7)cc6)CC5)C4)CC2)C3)C(C)(C)C)cc1 (stereo partly shown) [Compound 32] | exemplary degradation | – | exemplary degradation | – | < 20 | < 20 | – | – | – | – | – | – | – | – | – | – | – |
| Cc1ncsc1-c1ccc([C@H](C)NC(=O)[C@@H]2C[C@@H](O)CN2C(=O)[C@@H](NC(=O)CCCCCCC(=O)N2CCN(CC3(C)CCC(c4ccc(Cl)cc4)=C(CN4CCN(c5ccc(C(=O)NS(=O)(=O)c6ccc(N[C@H](CCN7C[C@H]8C[C@@H]7CO8)CSc7ccccc7)c(S(=O)(=O)C(F)(F)F)c6)cc5)CC4)C3)CC2)C(C)(C)C)cc1 (stereo partly shown) [Compound 65] | exemplary degradation | < 20 | exemplary degradation | < 20 | – | – | 1600 | 711 | 4.2 | 2.8 | – | – | – | – | – | – | – |
| Cc1ncsc1-c1ccc([C@H](C)NC(=O)[C@@H]2C[C@@H](O)CN2C(=O)[C@@H](NC(=O)CN2CCN(CC(=O)N3CCN(CC4(C)CCC(c5ccc(Cl)cc5)=C(CN5CCN(c6ccc(C(=O)NS(=O)(=O)c7ccc(N[C@H](CCN8C[C@H]9C[C@@H]8CO9)CSc8ccccc8)c(S(=O)(=O)C(F)(F)F)c7)cc6)CC5)C4)CC3)CC2)C(C)(C)C)cc1 (stereo partly shown) [Compound 68] | exemplary degradation | – | exemplary degradation | – | < 20 | < 20 | – | 240 | – | – | dose- and time-dependently degraded | long-lasting | do not affect | dose- and time-dependently degraded | long-lasting | do not affect | IC50 (human platelets; Table 3, mean of two independent experiments in triplicates, read-out: Platelets 48 h IC50): 777 nM; IC50 (human platelets; Table 6, 4 th time, read-out: Platelets 4 th time 48 h IC50): 777 nM; Platelets/MOLT-4 IC50 Fold change (human platelets; Table 3): 240; IC50 (RS4; 11; RS4-11, 48 h, read-out: RS4 48 h IC50): 5 nM; IC50 (MOLT-4; MOLT-4, 48 h, read-out: MOLT-4 48 h IC50): 3.2 nM |
| Cc1ncsc1-c1ccc([C@H](C)NC(=O)[C@@H]2C[C@@H](O)CN2C(=O)[C@@H](NC(=O)CN2CCN(CC(=O)N3CCN(C[C@]4(C)CCC(c5ccc(Cl)cc5)=C(CN5CCN(c6ccc(C(=O)NS(=O)(=O)c7ccc(N[C@H](CCN8CCCOCC8)CSc8ccccc8)c(S(=O)(=O)C(F)(F)F)c7)cc6)CC5)C4)CC3)CC2)C(C)(C)C)cc1 [Compound 77] | – | < 20 | – | < 20 | – | – | – | – | – | – | dose- and time-dependently degraded | long-lasting | do not affect | dose- and time-dependently degraded | long-lasting | do not affect | ternary complex formation with the VCB E3 ligase complex and Bcl-xL [5]: formed ternary complexes |
| Cc1ncsc1-c1ccc([C@H](C)NC(=O)[C@@H]2C[C@@H](O)CN2C(=O)[C@@H](NC(=O)CCCCCCC(=O)N2CCN(CC3(C)CCC(c4ccc(Cl)cc4)=C(CN4CCN(c5ccc(C(=O)NS(=O)(=O)c6ccc(N[C@H](CCN7C[C@@H]8C[C@H]7CO8)CSc7ccccc7)c(S(=O)(=O)C(F)(F)F)c6)cc5)CC4)C3)CC2)C(C)(C)C)cc1 (stereo partly shown) [compound 64] | – | < 20 | – | < 20 | – | – | 884 | – | 4.7 | 2.9 | – | – | – | – | – | – | – |
